{"source": "paper PMC3867380", "about": "“Fluorescence Imaging-Based High-Throughput Screening of Fast- and Slow-Cycling LOV Proteins” (PLoS ONE, 2013)", "key": {"[1]": {"target": "T1, AsLOV2 (second LOV domain of Avena sativa phototropin 1) (Avena sativa, UniProt O49003)", "T1 construct": "gene NPH1-1; LOV2 domain with J-alpha helix, residues 404-560; N-terminal 6xHis tag; synthetic cDNA with mammalian codons in pCold I; E. coli DH5alpha; TALON purified", "T1 sequence (O49003 entry or part of it)": "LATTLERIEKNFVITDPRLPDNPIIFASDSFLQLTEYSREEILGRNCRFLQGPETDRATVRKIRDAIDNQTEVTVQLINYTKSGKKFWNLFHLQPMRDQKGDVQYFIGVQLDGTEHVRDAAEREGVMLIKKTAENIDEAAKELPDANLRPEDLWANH", "assay": "absorption and fluorescence spectra of co-purified flavin; photoadduct formation and dark recovery at […] nm", "assay_type": "binding", "conditions": "room temperature; pH 7.5; flavin co-purified from E. coli; blue-light-induced reversible covalent adduct with Cys450"}, "[2]": {"target": "T2, AsLOV2 (second LOV domain of Avena sativa phototropin 1) (Avena sativa, UniProt O49003, V416T/T418S)", "T2 construct": "gene NPH1-1; LOV2 domain with J-alpha helix, residues 404-560; N-terminal 6xHis tag; synthetic cDNA with mammalian codons in pCold I; E. coli DH5alpha; TALON purified", "T2 sequence (O49003 entry or part of it V416T/T418S)": "as the sequence (O49003 entry or part of it) above, with V13T, T15S counted along it", "assay": "flavin fluorescence recovery imaging in E. coli colonies after blue light", "assay_type": "cell-based", "conditions": "colonies on agar, on ice and 25 °C; endogenous flavin; blue-light-induced reversible covalent adduct"}, "[3]": {"target": "T3, AsLOV2 (second LOV domain of Avena sativa phototropin 1) (Avena sativa, UniProt O49003, V416C/T418P/N425P/I466V/F494K)", "T3 construct": "gene NPH1-1; LOV2 domain with J-alpha helix, residues 404-560; N-terminal 6xHis tag; synthetic cDNA with mammalian codons in pCold I; E. coli DH5alpha; TALON purified", "T3 sequence (O49003 entry or part of it V416C/T418P/N425P/I466V/F494K)": "as the sequence (O49003 entry or part of it) above, with V13C, T15P, N22P, I63V, F91K counted along it", "assay": "flavin fluorescence recovery imaging in E. coli colonies after blue light", "assay_type": "cell-based", "conditions": "colonies on agar, 50 °C and 25 °C; endogenous flavin; blue-light-induced reversible covalent adduct"}, "[4]": {"target": "T4, AsLOV2 (second LOV domain of Avena sativa phototropin 1) (Avena sativa, UniProt O49003, N425Q/I427V)", "T4 construct": "gene NPH1-1; LOV2 domain with J-alpha helix, residues 404-560; N-terminal 6xHis tag; synthetic cDNA with mammalian codons in pCold I; E. coli DH5alpha; TALON purified", "T4 sequence (O49003 entry or part of it N425Q/I427V)": "as the sequence (O49003 entry or part of it) above, with N22Q, I24V counted along it", "assay": "flavin fluorescence recovery imaging in E. coli colonies after blue light", "assay_type": "cell-based", "conditions": "colonies on agar, on ice and 25 °C; endogenous flavin; blue-light-induced reversible covalent adduct"}, "[5]": {"target": "T5, AsLOV2 (second LOV domain of Avena sativa phototropin 1) (Avena sativa, UniProt O49003, N425S/I427L/I466M)", "T5 construct": "gene NPH1-1; LOV2 domain with J-alpha helix, residues 404-560; N-terminal 6xHis tag; synthetic cDNA with mammalian codons in pCold I; E. coli DH5alpha; TALON purified", "T5 sequence (O49003 entry or part of it N425S/I427L/I466M)": "as the sequence (O49003 entry or part of it) above, with N22S, I24L, I63M counted along it", "assay": "flavin fluorescence recovery imaging in E. coli colonies after blue light", "assay_type": "cell-based", "conditions": "colonies on agar, on ice and 25 °C; endogenous flavin; blue-light-induced reversible covalent adduct"}}, "data": [{"smiles": "Cc1cc2nc3c(=O)[nH]c(=O)nc-3n(C[C@H](O)[C@H](O)[C@H](O)COP(=O)(O)O)c2cc1C", "note": "[FMN]", "values": [{"measurement": "absorption and fluorescence spectra of co-purified flavin; photoadduct formation", "setting": "[1]", "result": "AsLOV2 is a photosensory domain that binds with FMN as a cofactor"}, {"measurement": "flavin fluorescence recovery imaging in E. coli colonies after blue light", "setting": "[2]", "result": "V416T/T418S exhibited particularly faster thermal reversion kinetics than others"}, {"measurement": "flavin fluorescence recovery imaging in E. coli colonies after blue light", "setting": "[3]", "result": "AsLOV2-V416L and AsLOV2-V416C/T418P/N425P/I466V/F494K exhibited particularly slower thermal reversion kinetics than others"}, {"measurement": "flavin fluorescence recovery imaging in E. coli colonies after blue light", "setting": "[4]", "result": "substitution of V416T, N425Q/I427V, N425S/I427L/I466M and V416T/T418S exhibited particularly faster thermal reversion kinetics"}, {"measurement": "flavin fluorescence recovery imaging in E. coli colonies after blue light", "setting": "[5]", "result": "substitution of V416T, N425Q/I427V, N425S/I427L/I466M and V416T/T418S exhibited particularly faster thermal reversion kinetics"}]}]}
